The values that follow come from ChEMBL document CHEMBL1201862, “PubChem BioAssay data set” (2004).

Test systems include SN12C; UACC-257; NCI-H522; OVCAR-8; U-251; ACHN; A498; LOX IMVI; KM12; UACC-62; NCI-H23; RPMI-8226; OVCAR-3; HOP-92; HCT-116; SK-OV-3; MOLT-4; NCI-H226; CCRF-CEM.
What all share (test): growth of human tumour cells (NCI), 48 h

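Exposure lasted 48 hours, with cells grown in 96-well plates and compounds tested at five concentrations. Abbreviation: GI50, concentration required for 50% inhibition of growth.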 Active and inactive are the calls of the source. Cut-off read from the data, not from the text of the source: active = GI50 up to about 1.1 µM and inactive = higher. Some results are limits rather than exact numbers.

Regarding `CCOC(=O)C1=C(C)N(NC(=O)Nc2ccccc2)C2(N)N(NC(=O)Nc3ccccc3)C(C)=C(C(=O)OCC)C12C(=O)OCC` (centres undefined), the GI50 in the experiment on SN12C is 1.66 µM (inactive); in the experiment on UACC-257, 67.3 µM (inactive); in the experiment on NCI-H522 it was 70 µM (inactive); in the experiment with OVCAR-8 it was 35.9 µM (inactive); in the experiment on U-251, 33 µM (inactive); with ACHN, 56.4 µM (inactive). The GI50 is 28.2 µM (inactive) with A498; 36.2 µM (inactive) in the experiment with LOX IMVI; > 100 µM (inactive) in the experiment with KM12; 49.3 µM (inactive) with UACC-62; 64 µM (inactive) in the experiment with NCI-H23; > 100 µM (inactive) with RPMI-8226. For the same compound, the GI50 in the experiment on OVCAR-3 is 49.2 µM (inactive); in the experiment on HOP-92 it was 18.8 µM (inactive); in the experiment on HCT-116 it was 29.9 µM (inactive); with SK-OV-3, 29.9 µM (inactive).
For the compound `CCCn1c(SCC)c2ccccc2c1-c1nc(F)nc(F)n1`, the GI50 in the experiment on SN12C, in the experiment with NCI-H522, in the experiment with U-251, with ACHN, with MOLT-4 and with A498 was > 100 µM (inactive) in each case. Also, the GI50 in the experiment with LOX IMVI, in the experiment with KM12, in the experiment with NCI-H23, with RPMI-8226, in the experiment with OVCAR-3 and in the experiment with NCI-H226 was > 100 µM (inactive) each time. Besides, the GI50 with CCRF-CEM, in the experiment with HOP-92 and with HCT-116 was > 100 µM (inactive) in each case.
For the compound `CCOC(=O)C1=C(C)N2CCOC2(C)C(C(=O)OC)C1c1cccc(Cl)c1` (centres undefined), the GI50 with SN12C was > 100 µM (inactive); in the experiment with UACC-257, > 100 µM (inactive); in the experiment with NCI-H522 it was 88.7 µM (inactive); in the experiment on OVCAR-8 it was > 100 µM (inactive); in the experiment on U-251, > 100 µM (inactive); in the experiment with ACHN, > 100 µM (inactive). In addition, the GI50 was > 100 µM (inactive) in the experiment with A498; > 100 µM (inactive) in the experiment with LOX IMVI; > 100 µM (inactive) in the experiment on KM12; 88.7 µM (inactive) in the experiment with UACC-62; > 100 µM (inactive) in the experiment with NCI-H23; > 100 µM (inactive) in the experiment on RPMI-8226. In addition, the GI50 with OVCAR-3 was > 100 µM (inactive); with CCRF-CEM, > 100 µM (inactive); with HOP-92 it was 31.6 µM (inactive); in the experiment with HCT-116, > 100 µM (inactive); in the experiment with SK-OV-3, > 100 µM (inactive).
As to `Nc1nc(O)c2nc(N)n(Cc3ccccc3)c2n1`, the GI50 in the experiment with SN12C, with UACC-257, with NCI-H522, in the experiment with OVCAR-8, with U-251 and in the experiment with ACHN was > 100 µM (inactive) throughout. The GI50 with MOLT-4, with A498, with LOX IMVI, in the experiment with KM12, in the experiment on UACC-62 and in the experiment on NCI-H23 was > 100 µM (inactive) throughout. Moreover, the GI50 in the experiment on RPMI-8226, in the experiment on OVCAR-3, in the experiment on CCRF-CEM, in the experiment on HOP-92, in the experiment with HCT-116 and with SK-OV-3 was > 100 µM (inactive) in each case.
For `CCCCCCCCCCCCCCCCc1c(O)nc(NN)nc1C(=O)OC`, the GI50 with SN12C, with UACC-257, with NCI-H522, in the experiment on OVCAR-8, with U-251 and with ACHN was > 50 µM (inactive) in each case. The GI50 with MOLT-4, with A498, with LOX IMVI, in the experiment with KM12, in the experiment with UACC-62 and in the experiment with NCI-H23 was > 50 µM (inactive) in each case. The GI50 in the experiment on RPMI-8226 is > 50 µM (inactive); in the experiment with OVCAR-3, > 50 µM (inactive); in the experiment with CCRF-CEM, > 50 µM (inactive); with HOP-92, 22.4 µM (inactive); with HCT-116 it was > 50 µM (inactive); with SK-OV-3, > 50 µM (inactive).
As to `COC1(OC)CC2OC1C1N=NN(C(=O)OC(C)(C)C)C21` (centres undefined), the GI50 with SN12C was > 100 µM (inactive); in the experiment on UACC-257, > 100 µM (inactive); in the experiment with U-251, > 100 µM (inactive); in the experiment on ACHN, > 100 µM (inactive); in the experiment with MOLT-4, 35.2 µM (inactive); in the experiment with A498, > 100 µM (inactive). Moreover, the GI50 in the experiment with LOX IMVI was > 100 µM (inactive); in the experiment on KM12, > 100 µM (inactive); in the experiment with UACC-62 it was > 100 µM (inactive); with NCI-H23, > 100 µM (inactive); in the experiment with RPMI-8226 it was 52.7 µM (inactive); in the experiment on OVCAR-3, 49.3 µM (inactive). Also, the GI50 in the experiment on NCI-H226 is > 100 µM (inactive); in the experiment on CCRF-CEM it was 21.1 µM (inactive); in the experiment with HOP-92 it was > 100 µM (inactive); in the experiment with SK-OV-3, > 100 µM (inactive).
As for `NNC(=S)N/N=C/C(Cl)=C(\Cl)C(=O)O`, the GI50 with SN12C was > 100 µM (inactive); in the experiment on UACC-257, > 100 µM (inactive); in the experiment on NCI-H522, 0.228 µM (active); in the experiment on OVCAR-8 it was > 100 µM (inactive); with U-251, > 100 µM (inactive); in the experiment with ACHN, > 100 µM (inactive). Besides, the GI50 with MOLT-4, in the experiment with A498, in the experiment on LOX IMVI, in the experiment with UACC-62, with NCI-H23 and in the experiment on RPMI-8226 was > 100 µM (inactive) each time. The GI50 in the experiment on OVCAR-3, with NCI-H226, with CCRF-CEM, with HOP-92 and in the experiment on HCT-116 was > 100 µM (inactive) throughout.
Turning to `COC1OC(CBr)C(OC(=O)c2ccccc2)C(OS(=O)(=O)c2ccc(C)cc2)C1Br` (centres undefined), the GI50 in the experiment with SN12C, in the experiment with UACC-257, with NCI-H522, in the experiment on OVCAR-8, with U-251 and with ACHN was > 100 µM (inactive) in each case. Also, the GI50 is > 100 µM (inactive) in the experiment with MOLT-4; > 100 µM (inactive) in the experiment on A498; > 100 µM (inactive) in the experiment on LOX IMVI; > 100 µM (inactive) with KM12; > 10 µM (inactive) in the experiment with UACC-62; > 100 µM (inactive) with NCI-H23. The GI50 was > 100 µM (inactive) with RPMI-8226; > 100 µM (inactive) in the experiment on OVCAR-3; > 100 µM (inactive) in the experiment on CCRF-CEM; 70.1 µM (inactive) in the experiment on HOP-92; > 100 µM (inactive) in the experiment on HCT-116; > 10 µM (inactive) with SK-OV-3.
Consider `COc1ccc2c(c1OC)C(C=C(c1ccccc1)c1ccccc1)CN(C)C2` (centres undefined), for which the GI50 in the experiment on SN12C was 25.5 µM (inactive); in the experiment with UACC-257, 21.8 µM (inactive); in the experiment with NCI-H522, 17.2 µM (inactive); with OVCAR-8, 20.4 µM (inactive); in the experiment on U-251, 20 µM (inactive); in the experiment on ACHN it was 24.4 µM (inactive). For the same compound, the GI50 with MOLT-4 was 31.6 µM (inactive); with A498, 17 µM (inactive); in the experiment with KM12, 18.9 µM (inactive); with UACC-62, 17.3 µM (inactive); in the experiment on NCI-H23 it was 22.4 µM (inactive); with RPMI-8226, 18.2 µM (inactive). In addition, the GI50 was 12.8 µM (inactive) in the experiment on OVCAR-3; 22.6 µM (inactive) in the experiment with NCI-H226; 21.3 µM (inactive) with CCRF-CEM; 14.2 µM (inactive) in the experiment on HOP-92; 8.39 µM (inactive) in the experiment with HCT-116; 27.4 µM (inactive) with SK-OV-3.
`COc1ccc(C(=O)C(C(=O)CCC(=O)Nc2cccc(Cl)c2)c2ccc(OC)cc2)cc1` (centres undefined): the GI50 with SN12C, in the experiment on UACC-257, with NCI-H522, in the experiment on OVCAR-8, in the experiment on U-251 and with ACHN was > 100 µM (inactive) throughout. The GI50 with MOLT-4, in the experiment on A498, with KM12, in the experiment with UACC-62, with NCI-H23 and with RPMI-8226 was > 100 µM (inactive) each time. Further, the GI50 in the experiment on OVCAR-3, in the experiment with NCI-H226, in the experiment with CCRF-CEM, in the experiment on HOP-92, in the experiment on HCT-116 and in the experiment with SK-OV-3 was > 100 µM (inactive) in each case.
As for `CCOC(=O)/C(C#N)=C(O)/C(=C/c1ccccc1Cl)NC(=O)c1ccccc1`, the GI50 is > 100 µM (inactive) in the experiment with SN12C; > 100 µM (inactive) with UACC-257; 0.0195 µM (active) with NCI-H522; > 100 µM (inactive) in the experiment on OVCAR-8; > 100 µM (inactive) with U-251; > 100 µM (inactive) with ACHN. Besides, the GI50 in the experiment on MOLT-4 was > 100 µM (inactive); with A498, > 100 µM (inactive); with KM12 it was > 100 µM (inactive); in the experiment with UACC-62, > 100 µM (inactive); in the experiment with NCI-H23, > 100 µM (inactive); in the experiment on RPMI-8226 it was 26.6 µM (inactive). Moreover, the GI50 in the experiment on OVCAR-3 is > 100 µM (inactive); with NCI-H226, > 100 µM (inactive); with CCRF-CEM, > 100 µM (inactive); in the experiment on HOP-92 it was > 100 µM (inactive); in the experiment on HCT-116 it was 30.3 µM (inactive); in the experiment on SK-OV-3, > 100 µM (inactive).
